Read-outs that look alike come from different tables or passages of the source.
Key:
[1] = test system: T47D (PI3Kα H1047R mutant) cells; assay: CellTiter-Glo 2.0 luminescent cell viability assay, 72 hours, T47D cells; format: cell-based; conditions: T47D (PI3Kα H1047R mutant) cells, CellTiter-Glo, approximately 72 hours, read-out: T47D (H1047R mutant) Viability IC50
In short: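 Cells seeded at 1000 per well overnight were dosed with a 10-concentration, 1:4 series starting at 10 µM and incubated ~72 h at 37° C. Viability was read by CellTiter-Glo 2.0 luminescence after 30 min at room temperature. IC50 came from four-parameter fits of percent vehicle control.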

[2] = test system: SKBR3 (PI3Kα wild type) cells; assay: CellTiter-Glo 2.0 luminescent cell viability assay, 72 hours, SKBR3 cells; format: cell-based; conditions: SKBR3 (PI3Kα wild type) cells, CellTiter-Glo, approximately 72 hours, read-out: SKBR3 (WT) Viability IC50
In short: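 Viability measured via CTG luminescence following roughly 72 hours of compound exposure at 37° C. Dosing used a 10 um starting concentration diluted 1:4 over 10 points; percent-of-vehicle data fitted with a variable-slope four-parameter model for IC50.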

| IC50 ([1]; Homo sapiens, T47D, 72 h) | IC50 ([2]; Homo sapiens, SK-BR-3, 72 h) | IC50 [1] | IC50 [2] | Structure (SMILES) |
| --- | --- | --- | --- | --- |
| > 10 µM | > 10 µM | – | – | Cc1cc(C(C)Nc2ccccc2)c2nc(N3CCOCC3)cc(=O)n2c1 (stereo not shown) [Example 11-421, 7-methyl-2-morpholino-9-(1-(phenylamino)ethyl)-4H-pyrido[1,2-a]pyrimidin-4-one] |
| 1.65 µM | > 10 µM | – | – | Cc1cc([C@@H](C)Nc2ccccc2C(=O)O)c2nc(NC34CC(CO)(C3)C4)c(C#N)c(=O)n2c1 [Example 11-282, (R)-2-((1-(3-cyano-2-((3-(hydroxymethyl)bicyclo[1.1.1]pentan-1-yl)amino)-7-methyl-4-oxo-4H-pyrido[1,2-a]pyrimidin-9-yl)ethyl)amino)benzoic acid] |
| 0.173 µM | > 10 µM | – | – | Cc1cc([C@@H](C)Nc2ccccc2C(=O)O)c2nc(N3Cc4ccccc4C3CO)c(C)c(=O)n2c1 (stereo partly drawn) [Example 11-19, 2-(((1R)-1-(2-(1-(hydroxymethyl)isoindolin-2-yl)-3,7-dimethyl-4-oxo-4H-pyrido[1,2-a]pyrimidin-9-yl)ethyl)amino)benzoic acid] |
| > 10 µM | > 10 µM | – | – | Cc1cc([C@@H](C)Nc2cc(Cl)nnc2C(=O)O)c2nc(N3Cc4ccccc4C3)c(C)c(=O)n2c1 [Example 11-276, (R)-6-chloro-4-((1-(2-(isoindolin-2-yl)-3,7-dimethyl-4-oxo-4H-pyrido[1,2-a]pyrimidin-9-yl)ethyl)amino)pyridazine-3-carboxylic acid] |
| 0.162 µM | > 10 µM | – | – | Cc1cc([C@@H](C)Nc2ccccc2C(=O)O)c2nc(N3CCCCCC3)c(C#N)c(=O)n2c1 [Example 11-319, (R)-2-((1-(2-(azepan-1-yl)-3-cyano-7-methyl-4-oxo-4H-pyrido[1,2-a]pyrimidin-9-yl)ethyl)amino)benzoic acid] |
| > 10 µM | > 10 µM | – | – | Cc1cc(C(=O)NC2CCCCC2C(=O)O)c2nc(N3CCCCC3)c(C#N)c(=O)n2c1 (stereo not shown) [Example 11-315, 2-(3-cyano-7-methyl-4-oxo-2-(piperidin-1-yl)-4H-pyrido[1,2-a]pyrimidine-9-carboxamido)cyclohexane-1-carboxylic acid] |
| 0.263 µM | > 10 µM | – | – | Cc1cc([C@@H](C)Nc2ccccc2C(=O)O)c2nc(N3CCN(c4cccc5c(C#N)nn(C)c45)CC3)c(C)c(=O)n2c1 [Example 11-251, (R)-2-((1-(2-(4-(3-cyano-1-methyl-1H-indazol-7-yl)piperazin-1-yl)-3,7-dimethyl-4-oxo-4H-pyrido[1,2-a]pyrimidin-9-yl)ethyl)amino)benzoic acid] |
| 0.0747 µM | > 10 µM | – | – | Cc1cc(C(C)Nc2ccc(F)nc2C(=O)O)c2nc(N3Cc4ccccc4C3)c(C)c(=O)n2c1 (stereo not shown) [Example 11-352, 6-fluoro-3-((1-(2-(isoindolin-2-yl)-3,7-dimethyl-4-oxo-4H-pyrido[1,2-a]pyrimidin-9-yl)ethyl)amino)picolinic acid] |
| > 10 µM | > 10 µM | – | – | Cc1cc([C@@H](C)Nc2ccncc2C(=O)O)c2nc(N3Cc4ccccc4C3)c(C)c(=O)n2c1 [Example 11-275, (R)-4-((1-(2-(isoindolin-2-yl)-3,7-dimethyl-4-oxo-4H-pyrido[1,2-a]pyrimidin-9-yl)ethyl)amino)nicotinic acid] |
| – | – | 2.97 µM | > 10 µM | Cc1cc([C@@H](C)Nc2ccc(F)nc2C(=O)O)c2nc(N3CCC(F)(F)CC3)c(C)c(=O)n2c1 [Example 11-45, (R)-3-((1-(2-(4,4-difluoropiperidin-1-yl)-3,7-dimethyl-4-oxo-4H-pyrido[1,2-a]pyrimidin-9-yl)ethyl)amino)-6-fluoropicolinic acid] |
| 0.146 µM | > 10 µM | – | – | Cc1cc([C@@H](C)Nc2ccccc2C(=O)O)c2nc(N3CCC(F)(F)C(C)C3)c(C)c(=O)n2c1 (stereo partly drawn) [Example 11-65, 2-(((1R)-1-(2-(4,4-difluoro-3-methylpiperidin-1-yl)-3,7-dimethyl-4-oxo-4H-pyrido[1,2-a]pyrimidin-9-yl)ethyl)amino)benzoic acid] |
| 0.0716 µM | > 10 µM | – | – | Cc1cc([C@@H](C)Nc2ccccc2C(=O)O)c2nc(N3CCC4(CCOC4)C3)c(C)c(=O)n2c1 (stereo partly drawn) [Example 10-138, 2-(((1R)-1-(3,7-dimethyl-4-oxo-2-(2-oxa-7-azaspiro[4.4]nonan-7-yl)-4H-pyrido[1,2-a]pyrimidin-9-yl)ethyl)amino)benzoic acid] |
| 4.88 µM | > 10 µM | – | – | C=C(C#N)CNc1nc2c([C@@H](C)Nc3ccccc3C(=O)O)cc(C)cn2c(=O)c1C [Example 11-110, (R)-2-((1-(2-((2-cyanoallyl)amino)-3,7-dimethyl-4-oxo-4H-pyrido[1,2-a]pyrimidin-9-yl)ethyl)amino)benzoic acid] |
| 0.117 µM | > 10 µM | – | – | Cc1cc([C@@H](C)Nc2ccccc2C(=O)O)c2nc(N3CCC4(CC3)CC4)c(C#N)c(=O)n2c1 [Example 11-220, (R)-2-((1-(3-cyano-7-methyl-4-oxo-2-(6-azaspiro[2.5]octan-6-yl)-4H-pyrido[1,2-a]pyrimidin-9-yl)ethyl)amino)benzoic acid] |
| 0.9 µM | > 10 µM | – | – | Cc1cc([C@@H](C)Nc2ccccc2C(=O)O)c2nc(N3C[C@H]4C[C@@H]3CN4c3ccc(C#N)cc3)c(C#N)c(=O)n2c1 [Example 11-174, 2-(((R)-1-(3-cyano-2-((1R,4R)-5-(4-cyanophenyl)-2,5-diazabicyclo[2.2.1]heptan-2-yl)-7-methyl-4-oxo-4H-pyrido[1,2-a]pyrimidin-9-yl)ethyl)amino)benzoic acid] |
| 4.19 µM | > 10 µM | – | – | Cc1cc([C@@H](C)Nc2ccnnc2C(=O)O)c2nc(N3Cc4ccccc4C3)c(C)c(=O)n2c1 [Example 11-277, (R)-4-((1-(2-(isoindolin-2-yl)-3,7-dimethyl-4-oxo-4H-pyrido[1,2-a]pyrimidin-9-yl)ethyl)amino)pyridazine-3-carboxylic acid] |
| 3.71 µM | > 10 µM | – | – | Cc1cc([C@H](C)Nc2ccccc2)c2nc(N3Cc4ccccc4C3)c(C#N)c(=O)n2c1 [Example 11-300, (S)-2-(isoindolin-2-yl)-7-methyl-4-oxo-9-(1-(phenylamino)ethyl)-4H-pyrido[1,2-a]pyrimidine-3-carbonitrile] |
| 1.06 µM | > 10 µM | – | – | Cc1cc([C@@H](C)Nc2ccccc2C(=O)O)c2nc(N3CC4(CN(c5ccc(C#N)cc5)C4)C3)c(C)c(=O)n2c1 [Example 11-191, (R)-2-((1-(2-(6-(4-cyanophenyl)-2,6-diazaspiro[3.3]heptan-2-yl)-3,7-dimethyl-4-oxo-4H-pyrido[1,2-a]pyrimidin-9-yl)ethyl)amino)benzoic acid] |
| 0.168 µM | > 10 µM | – | – | Cc1cc([C@@H](C)Nc2ccccc2C(=O)O)c2nc(N3C[C@@H](C)C(F)(F)C3)c(C)c(=O)n2c1 [Example 11-120, 2-(((R)-1-(2-((R)-3,3-difluoro-4-methylpyrrolidin-1-yl)-3,7-dimethyl-4-oxo-4H-pyrido[1,2-a]pyrimidin-9-yl)ethyl)amino)benzoic acid] |
| 0.17 µM | > 10 µM | – | – | CO[C@@H]1CN(c2nc3c([C@@H](C)Nc4ccccc4C(=O)O)cc(C)cn3c(=O)c2C)CCC1(F)F [Example 11-58, 2-(((R)-1-(2-((R)-4,4-difluoro-3-methoxypiperidin-1-yl)-3,7-dimethyl-4-oxo-4H-pyrido[1,2-a]pyrimidin-9-yl)ethyl)amino)benzoic acid] |
| – | > 10 µM | 0.0894 µM | – | Cc1cc([C@@H](C)Nc2ccc(F)nc2C(=O)O)c2nc(N3CCC(F)(F)CC3)c(C)c(=O)n2c1 [Example 10-105, (R)-3-((1-(2-(4,4-difluoropiperidin-1-yl)-3,7-dimethyl-4-oxo-4H-pyrido[1,2-a]pyrimidin-9-yl)ethyl)amino)-6-fluoropicolinic acid] |
| 0.383 µM | > 10 µM | – | – | Cc1cc([C@@H](C)Nc2ccccc2C(=O)O)c2nc(NC[C@@H]3CCOC3)c(C)c(=O)n2c1 [Example 11-195, 2-(((R)-1-(3,7-dimethyl-4-oxo-2-((((S)-tetrahydrofuran-3-yl)methyl)amino)-4H-pyrido[1,2-a]pyrimidin-9-yl)ethyl)amino)benzoic acid] |
| 0.194 µM | > 10 µM | – | – | Cc1cc([C@@H](C)Nc2ccccc2C(=O)O)c2nc(N3Cc4cccc(F)c4C3)c(C)c(=O)n2c1 [Example 11-38, (R)-2-((1-(2-(4-fluoroisoindolin-2-yl)-3,7-dimethyl-4-oxo-4H-pyrido[1,2-a]pyrimidin-9-yl)ethyl)amino)benzoic acid] |

| Structure (SMILES) | IC50 ([1]; Homo sapiens, T47D, 72 h) | IC50 ([2]; Homo sapiens, SK-BR-3, 72 h) | IC50 [1] | IC50 [2] |
| --- | --- | --- | --- | --- |
| Cc1cc([C@@H](C)Nc2ccccc2C(=O)O)c2nc(N3CC4CC(C4)C3)c(C#N)c(=O)n2c1 [Example 11-227, (R)-2-((1-(2-(3-azabicyclo[3.1.1]heptan-3-yl)-3-cyano-7-methyl-4-oxo-4H-pyrido[1,2-a]pyrimidin-9-yl)ethyl)amino)benzoic acid] | 0.123 µM | > 10 µM | – | – |
| Cc1cc(C(C)Nc2ccccc2C(=O)O)c2nc(C3=CCNCC3)cc(=O)n2c1 (stereo not shown) [Example 11-378, 2-((1-(7-methyl-4-oxo-2-(1,2,3,6-tetrahydropyridin-4-yl)-4H-pyrido[1,2-a]pyrimidin-9-yl)ethyl)amino)benzoic acid] | > 10 µM | > 10 µM | – | – |
| Cc1cc([C@@H](C)Nc2ccccc2C(=O)O)c2nc(N3C4CCC3CN(c3ccc(C#N)cc3)C4)c(C#N)c(=O)n2c1 [Example 11-182, 2-(((1R)-1-(3-cyano-2-(3-(4-cyanophenyl)-3,8-diazabicyclo[3.2.1]octan-8-yl)-7-methyl-4-oxo-4H-pyrido[1,2-a]pyrimidin-9-yl)ethyl)amino)benzoic acid] | 0.239 µM | > 10 µM | – | – |
